ChEMBL document CHEMBL5096210, “Discovery of Betulinic Acid Derivatives as Potent Intestinal Farnesoid X Receptor Antagonists to Ameliorate Nonalcoholic Steatohepatitis” (J Med Chem, 2022)
Calls of active or inactive are those of the source. The calls are words filed in the database; no cut-off is given here.

What was measured:
[1] = species: Mus musculus; test: Anti-NASH activity in GAN diet-induced […] mouse assessed as upregulation of Cyp7a1 mRNA expression in liver; type: functional, organism-based
[2] = tested on: Liver; test: Anti-NASH activity in GAN diet-induced […] mouse liver assessed as reduced NAFLD activity score; type: functional
[3] = species: Mus musculus; test: Anti-NASH activity in GAN diet-induced […] mouse assessed as reduction in Plin2 mRNA expression level; type: functional, organism-based
[4] = tested on: Liver; test: Anti-NASH activity in GAN diet-induced […] mouse liver assessed as reduction in hepatocyte ballooning by Oil Red O staining based assay; type: functional, cell-based
[5] = species: Mus musculus; test: Anti-NASH activity in GAN diet-induced […] mouse assessed as reduction in ALT level; type: functional, organism-based
[6] = tested on: Mus musculus; test: Anti-NASH activity in HFMCD diet-induced […] mouse assessed as reduction in ALT serum level at 30 mg/kg, po for 4 weeks; type: functional, organism-based
[7] = species: Mus musculus; test: Anti-NASH activity in GAN diet-induced […] mouse assessed as upregulation of Cyp8b1 mRNA expression in liver; type: functional, organism-based
[8] = target: T1, Bile acid receptor (Mus musculus) (UniProt Q60641); test: In vivo antagonist activity against FXR in mouse assessed as reduction in Fgf15 level in presence of GW4064; type: functional
T1 sequence (whole entry): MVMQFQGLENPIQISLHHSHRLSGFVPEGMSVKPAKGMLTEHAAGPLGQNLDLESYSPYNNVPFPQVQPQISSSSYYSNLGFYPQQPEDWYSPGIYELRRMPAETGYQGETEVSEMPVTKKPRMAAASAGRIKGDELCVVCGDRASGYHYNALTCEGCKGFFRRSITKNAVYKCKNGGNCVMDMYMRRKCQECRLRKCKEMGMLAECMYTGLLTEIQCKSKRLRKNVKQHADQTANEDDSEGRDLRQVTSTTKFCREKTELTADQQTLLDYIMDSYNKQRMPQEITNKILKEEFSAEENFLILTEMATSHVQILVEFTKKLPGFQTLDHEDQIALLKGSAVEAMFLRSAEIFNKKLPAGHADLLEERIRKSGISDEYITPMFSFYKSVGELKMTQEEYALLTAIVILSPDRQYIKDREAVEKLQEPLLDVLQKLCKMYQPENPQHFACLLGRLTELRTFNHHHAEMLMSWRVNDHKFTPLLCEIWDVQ

[9] = species: Mus musculus; test: Anti-NASH activity in GAN diet-induced […] mouse assessed as increase in FXR protein by Western blot analysis; type: functional, organism-based
[10] = Drug metabolism in C57BL6 mouse liver assessed as ((1S,3aS,5aR,5bR,7aR,9R,11aR,11bR,13aR,13bR)-9-hydroxy-1-isopropyl-5a,5b,8,8,11a-pentamethylicosahydro-1H-cyclopenta[a]chrysene-3a-carbonyl)glycine formation at 10 mg/kg, po administered as single dose measured after 2 hrs; type: ADME, organism-based; details: in vivo
[11] = species: Mus musculus; test: Anti-NASH activity in GAN diet-induced […] mouse assessed as bile acid level in gall bladder; type: functional, organism-based
[12] = species: Mus musculus; test: Anti-NASH activity in GAN diet-induced […] mouse assessed as upregulation of Ppara mRNA expression level; type: functional, organism-based
[13] = tested on: Liver; test: Anti-NASH activity in GAN diet-induced […] mouse liver assessed as reduction in hepatocyte ballooning by Sirius red staining based analysis; type: functional, cell-based
[14] = species: Mus musculus; test: Anti-NASH activity in GAN diet-induced […] mouse assessed as decrease in hydroxyproline in liver; type: functional, organism-based
[15] = species: Mus musculus; test: Anti-NASH activity in GAN diet-induced […] mouse assessed as reduction in Fabp3 mRNA expression level; type: functional, organism-based
[16] = target: T1, Bile acid receptor (Mus musculus); test: In vivo antagonist activity against FXR in microbeta depleted mouse assessed as reduction in taurocholic acid induced FXR mRNA expression in hepatic signaling at 10 mg/kg, po incubated for 2 to 48 hrs; type: functional, organism-based; details: time 2-48 hrs
[17] = species: Mus musculus; test: Anti-NASH activity in GAN diet-induced […] mouse assessed as reduction in N-tcp mRNA level; type: functional, organism-based
[18] = species: Mus musculus; test: Anti-NASH activity in GAN diet-induced […] mouse assessed as increase in bile acid level in liver; type: functional, organism-based
[19] = tested on: Mus musculus; test: Anti-NASH activity in GAN-induced mouse assessed as increase in glucose tolerance at 10 mg/kg; type: functional, organism-based
[20] = Cytotoxicity against HEK293T cells cotransfected with pCMV-Script-hFXR/pGL4.11-hSHP-Luciferase incubated for 24 hrs in presence of GW4064 by celltiter-blue cell viability assay; type: toxicity, cell-based, HEK-293T; details: human
[21] = species: Mus musculus; test: Anti-NASH activity in GAN diet-induced […] mouse assessed as increase in Bsep mRNA level; type: functional, organism-based
[22] = tested on: Liver; test: Anti-NASH activity in GAN diet-induced […] mouse liver assessed as reduction in hepatocyte ballooning by H and E staining based analysis; type: functional, cell-based
[23] = species: Mus musculus; test: Anti-NASH activity in GAN diet-induced […] mouse assessed as reduction in liver index; type: functional, organism-based
[24] = tested on: Mus musculus; test: Anti-NASH activity in GAN-induced mouse assessed as increase in insulin sensitivity at 10 mg/kg; type: functional, organism-based
[25] = species: Mus musculus; test: Anti-NASH activity in GAN diet-induced […] mouse assessed as reduction in AST level; type: functional, organism-based
[26] = species: Mus musculus; test: Anti-NASH activity in GAN diet-induced […] mouse assessed as reduction in mature Il1beta; type: functional, organism-based
[27] = tested on: Mus musculus; test: Anti-NASH activity in GAN diet-induced […] mouse assessed as reduction of sphinogo-myelin level in serum administered orally for 12 weeks; type: functional, organism-based; details: route po
[28] = tested on: Mus musculus; test: Anti-NASH activity in GAN-induced […] mouse assessed as reduction in body weight at 10 mg/kg, IG measured after 12 weeks; type: functional, organism-based
[29] = target: T2, Bile acid receptor (Homo sapiens, UniProt Q96RI1); test: Antagonist activity at FXR (unknown origin) expressed in HEK293T cells cotransfected with pCMV-Script-hFXR/pGL4.11-hSHP-Luciferase incubated for 24 hrs in presence of GW4064 by Steady-glo luciferase assay; type: cell-based
T2 sequence (Q96RI1 whole entry): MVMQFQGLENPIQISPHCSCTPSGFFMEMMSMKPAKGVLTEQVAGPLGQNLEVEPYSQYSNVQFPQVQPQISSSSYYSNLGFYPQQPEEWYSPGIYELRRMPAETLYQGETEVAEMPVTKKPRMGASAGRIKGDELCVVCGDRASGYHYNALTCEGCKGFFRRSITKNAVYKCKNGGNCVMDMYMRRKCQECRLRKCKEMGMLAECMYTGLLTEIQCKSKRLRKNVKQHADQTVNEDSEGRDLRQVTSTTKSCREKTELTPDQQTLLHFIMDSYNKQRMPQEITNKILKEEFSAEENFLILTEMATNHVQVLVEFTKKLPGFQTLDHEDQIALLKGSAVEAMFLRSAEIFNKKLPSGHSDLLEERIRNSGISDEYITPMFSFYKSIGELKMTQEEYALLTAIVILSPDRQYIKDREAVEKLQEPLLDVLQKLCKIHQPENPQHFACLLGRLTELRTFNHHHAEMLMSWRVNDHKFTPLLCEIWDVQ

With `CCCC(=O)O[C@@H]1CC[C@]2(C)[C@H]3CC[C@@H]4[C@H]5[C@H](C(C)C)CC[C@]5(C(=O)NCC(=O)O)CC[C@@]4(C)[C@]3(C)CC[C@H]2C1(C)C` the Activity [1] was “Active”, the Activity [2] was “Active” and the Activity [3] was “Active”. The Activity [4] was “Active”, the Activity [5] was “Active” and the Activity [6] was “Active”. The Activity [7] was “Active”, the Activity [8] was “Active” and the Activity [9] was “Active”. For the same compound, the Drug metabolism [10] was “Metabolite_Detected”, the Activity [11] was “Active” and the Activity [12] was “Active”. The Activity [13] was “Active”, the Activity [14] was “Active” and the Activity [15] was “Active”. The Activity [16] was “Active”, the Activity [17] was “Active” and the Activity [18] was “Active”. The Activity [19] was “Active”, the IC50 at 24 h [20] was > 100 µM and the Activity [21] was “Active”. The Activity [22] was “Active”, the Activity [23] was “Active” and the Activity [24] was “Active”. For the same compound, the Activity [25] was “Active”, the Activity [26] was “Active” and the Activity [27] was “Active”. For the same compound, the Activity [28] was “Active” and the IC50 [29] was 2.1 µM.
